In EP0584797A2, “Novel cephalosporin compounds and processes for the preparation thereof” (LUCKY LTD., priority 1992, dated 1994):
Converted amounts (≈) assume the structure as drawn.

Legend:
Assay in all cases: minimal inhibitory concentration, two-fold agar dilution
Format in all cases: cell-based
[1] = system: Bacillus megaterium ATCC 9885; details: Priestia megaterium, ATCC9885; Muller-Hinton agar; 37°C; 20 hours; read-out: MIC values against the standard strains
Description: (§1) These MIC values were taken by employing a two-fold dilution method: that is, two-fold serial dilutions of each of the test compounds were made and dispersed in a Muller-Hinton agar medium; 2µl of the standard test strain which had the 10⁷ CFU(Colony Forming Unit) per ml was inoculated on the medium; and these were incubated at 37°C for 20 hours.

[2] = system: Enterobacter aerogenes ATCC 29751; details: Klebsiella aerogenes, ATCC29751; Muller-Hinton agar; 37°C; 20 hours; read-out: MIC values against the standard strains
Description: as §1

[3] = system: Acinetobacter calcoaceticus ATCC 15473; details: ATCC15473, Muller-Hinton agar, 37°C, 20 hours, read-out: MIC values against the standard strains
Description: as §1

[4] = system: Escherichia coli ATCC 10536; details: ATCC10536, Muller-Hinton agar, 37°C, 20 hours, read-out: MIC values against the standard strains
Description: as §1

[5] = system: Pseudomonas aeruginosa ATCC 25619; details: ATCC25619, Muller-Hinton agar, 37°C, 20 hours, read-out: MIC values against the standard strains
Description: as §1

[6] = system: Staphylococcus aureus ATCC 6538p; details: ATCC6538P, Muller-Hinton agar, 37°C, 20 hours, read-out: MIC values against the standard strains
Description: as §1

[7] = system: Escherichia coli ATCC 25922; details: ATCC25922, Muller-Hinton agar, 37°C, 20 hours, read-out: MIC values against the standard strains
Description: as §1

[8] = system: Staphylococcus epidermidis ATCC 12228; details: ATCC12228, Muller-Hinton agar, 37°C, 20 hours, read-out: MIC values against the standard strains
Description: as §1

[9] = system: Proteus vulgaris ATCC 6059; details: ATCC6059, Muller-Hinton agar, 37°C, 20 hours, read-out: MIC values against the standard strains
Description: as §1

[10] = system: Salmonella typhimurium ATCC 14028; details: Salmonella enterica; Muller-Hinton agar; 37°C; 20 hours; read-out: MIC values against the standard strains
Description: as §1

[11] = system: Proteus mirabilis ATCC 25933; details: ATCC25933, Muller-Hinton agar, 37°C, 20 hours, read-out: MIC values against the standard strains
Description: as §1

[12] = system: Pseudomonas aeruginosa ATCC 10145; details: ATCC10145, Muller-Hinton agar, 37°C, 20 hours, read-out: MIC values against the standard strains
Description: as §1

[13] = system: Bacillus cereus ATCC 11778; details: ATCC11778, Muller-Hinton agar, 37°C, 20 hours, read-out: MIC values against the standard strains
Description: as §1

[14] = system: Morganella morganii ATCC 8076h; details: ATCC8076H, Muller-Hinton agar, 37°C, 20 hours, read-out: MIC values against the standard strains
Description: as §1

[15] = system: Streptococcus faecalis ATCC 29212; details: Enterococcus faecalis, ATCC29212; Muller-Hinton agar; 37°C; 20 hours; read-out: MIC values against the standard strains
Description: as §1

[16] = system: Pseudomonas aeruginosa ATCC 27853; details: ATCC27853, Muller-Hinton agar, 37°C, 20 hours, read-out: MIC values against the standard strains
Description: as §1

[17] = system: Citrobacter freundii ATCC 8090; details: ATCC8090, Muller-Hinton agar, 37°C, 20 hours, read-out: MIC values against the standard strains
Description: as §1

[18] = system: Micrococcus luteus ATCC 9341; details: ATCC9341, Muller-Hinton agar, 37°C, 20 hours, read-out: MIC values against the standard strains
Description: as §1

[19] = system: Klebsiella pneumoniae ATCC 10031; details: ATCC10031, Muller-Hinton agar, 37°C, 20 hours, read-out: MIC values against the standard strains
Description: as §1

[20] = system: Providencia rettgeri ATCC 9250; details: ATCC9250, Muller-Hinton agar, 37°C, 20 hours, read-out: MIC values against the standard strains
Description: as §1

[21] = system: Enterobacter cloacae ATCC 27508; details: ATCC27508, Muller-Hinton agar, 37°C, 20 hours, read-out: MIC values against the standard strains
Description: as §1

[22] = system: Staphylococcus aureus ATCC 10537; details: ATCC10537, Muller-Hinton agar, 37°C, 20 hours, read-out: MIC values against the standard strains
Description: as §1

[23] = system: Shigella flexneri ATCC 11836; details: ATCC11836, Muller-Hinton agar, 37°C, 20 hours, read-out: MIC values against the standard strains
Description: as §1

[24] = system: Serratia marcescens ATCC 27117; details: ATCC27117, Muller-Hinton agar, 37°C, 20 hours, read-out: MIC values against the standard strains
Description: as §1

[25] = system: Shigella sonnei ATCC 11060; details: ATCC11060, Muller-Hinton agar, 37°C, 20 hours, read-out: MIC values against the standard strains
Description: as §1

C[C@@H](O/N=C(\C(=O)N[C@@H]1C(=O)N2C(C(=O)[O-])=C(CSc3nc(N)c(N)c(N)[n+]3C)CS[C@H]12)c1csc(N)n1)C(=O)O [Example 82-b, 7-[(Z)-2-(2-aminothiazol-4-yl)-2-{1-carboxyeth-1-oxyimino}acetamido]-3-(4,5,6-triamino-1-methylpyrimidinium-2-yl)thiomethyl-3-cephem-4-carboxylate]
MIC [1]: 0.5 µg/mL (≈ 0.8 µM) | MIC [2]: 0.5 µg/mL (≈ 0.8 µM) | MIC [3]: 8 µg/mL (≈ 12.8 µM) | MIC [4]: 0.031 µg/mL (≈ 0.0496 µM) | MIC [5]: 1 µg/mL (≈ 1.6 µM) | MIC [6]: 8 µg/mL (≈ 12.8 µM) | MIC [7]: 0.031 µg/mL (≈ 0.0496 µM) | MIC [8]: 2 µg/mL (≈ 3.2 µM) | MIC [9]: 0.031 µg/mL (≈ 0.0496 µM) | MIC [10]: 0.063 µg/mL (≈ 0.101 µM) | MIC [11]: 0.031 µg/mL (≈ 0.0496 µM) | MIC [12]: 2 µg/mL (≈ 3.2 µM) | MIC [13]: 128 µg/mL (≈ 205 µM) | MIC [14]: ≤ 0.008 µg/mL | MIC [15]: > 128 µg/mL | MIC [16]: 1 µg/mL (≈ 1.6 µM) | MIC [17]: 0.063 µg/mL (≈ 0.101 µM) | MIC [18]: 0.5 µg/mL (≈ 0.8 µM) | MIC [19]: 0.031 µg/mL (≈ 0.0496 µM) | MIC [20]: ≤ 0.008 µg/mL | MIC [21]: ≤ 0.008 µg/mL | MIC [22]: 2 µg/mL (≈ 3.2 µM) | MIC [23]: 0.031 µg/mL (≈ 0.0496 µM) | MIC [24]: 0.063 µg/mL (≈ 0.101 µM)

CC(C)(O/N=C(\C(=O)N[C@@H]1C(=O)N2C(C(=O)[O-])=C(C[n+]3ccccc3)CS[C@H]12)c1csc(N)n1)C(=O)O [Ceftazidime, reference compound]
MIC [1]: 0.25 µg/mL (≈ 0.457 µM) | MIC [2]: 8 µg/mL (≈ 14.6 µM) | MIC [3]: 2 µg/mL (≈ 3.66 µM) | MIC [4]: 0.13 µg/mL (≈ 0.238 µM) | MIC [5]: 1 µg/mL (≈ 1.83 µM) | MIC [6]: 8 µg/mL (≈ 14.6 µM) | MIC [7]: 0.13 µg/mL (≈ 0.238 µM) | MIC [8]: 4 µg/mL (≈ 7.32 µM) | MIC [9]: 0.063 µg/mL (≈ 0.115 µM) | MIC [10]: 0.25 µg/mL (≈ 0.457 µM) | MIC [25]: 0.13 µg/mL (≈ 0.238 µM) | MIC [11]: 0.063 µg/mL (≈ 0.115 µM) | MIC [12]: 2 µg/mL (≈ 3.66 µM) | MIC [13]: 128 µg/mL (≈ 234 µM) | MIC [14]: ≤ 0.008 µg/mL | MIC [15]: > 128 µg/mL | MIC [16]: 1 µg/mL (≈ 1.83 µM) | MIC [17]: 0.13 µg/mL (≈ 0.238 µM) | MIC [18]: 0.5 µg/mL (≈ 0.915 µM) | MIC [19]: 0.13 µg/mL (≈ 0.238 µM) | MIC [20]: ≤ 0.008 µg/mL | MIC [21]: 0.031 µg/mL (≈ 0.0567 µM) | MIC [22]: 4 µg/mL (≈ 7.32 µM) | MIC [23]: 0.031 µg/mL (≈ 0.0567 µM) | MIC [24]: 0.13 µg/mL (≈ 0.238 µM)

Cc1c[n+](N)c(SCC2=C(C(=O)[O-])N3C(=O)[C@@H](NC(=O)/C(=N\OC(C)(C)C(=O)O)c4csc(N)n4)[C@H]3SC2)nc1N [Example 57]
MIC [1]: 0.25 µg/mL (≈ 0.401 µM) | MIC [2]: 0.5 µg/mL (≈ 0.802 µM) | MIC [3]: 16 µg/mL (≈ 25.7 µM) | MIC [4]: 0.063 µg/mL (≈ 0.101 µM) | MIC [5]: 1 µg/mL (≈ 1.6 µM) | MIC [6]: 8 µg/mL (≈ 12.8 µM) | MIC [7]: 0.063 µg/mL (≈ 0.101 µM) | MIC [8]: 2 µg/mL (≈ 3.21 µM) | MIC [9]: 0.031 µg/mL (≈ 0.0497 µM) | MIC [10]: 0.13 µg/mL (≈ 0.208 µM) | MIC [25]: 0.063 µg/mL (≈ 0.101 µM) | MIC [11]: 0.031 µg/mL (≈ 0.0497 µM) | MIC [12]: 2 µg/mL (≈ 3.21 µM) | MIC [13]: 128 µg/mL (≈ 205 µM) | MIC [14]: ≤ 0.008 µg/mL | MIC [15]: > 128 µg/mL | MIC [16]: 2 µg/mL (≈ 3.21 µM) | MIC [17]: 0.031 µg/mL (≈ 0.0497 µM) | MIC [18]: 0.25 µg/mL (≈ 0.401 µM) | MIC [19]: 0.063 µg/mL (≈ 0.101 µM) | MIC [20]: ≤ 0.008 µg/mL | MIC [21]: ≤ 0.008 µg/mL | MIC [22]: 2 µg/mL (≈ 3.21 µM) | MIC [23]: 0.063 µg/mL (≈ 0.101 µM) | MIC [24]: 0.13 µg/mL (≈ 0.208 µM)

CC[C@@H](O/N=C(\C(=O)N[C@@H]1C(=O)N2C(C(=O)[O-])=C(CSc3nc(N)cc[n+]3N)CS[C@H]12)c1csc(N)n1)C(=O)O [Example 88-b, 7-[(Z)-2-(2-aminothiazol-4-yl)-2-{(R)-1-carboxyprop-1-oxyimino}acetamido]-3-(1,4-diaminopyrimidinium-2-yl)thiomethyl-3-cephem-4-carboxylate]
MIC [1]: 1 µg/mL (≈ 1.64 µM) | MIC [2]: 1 µg/mL (≈ 1.64 µM) | MIC [3]: 8 µg/mL (≈ 13.1 µM) | MIC [4]: 0.063 µg/mL (≈ 0.103 µM) | MIC [5]: 1 µg/mL (≈ 1.64 µM) | MIC [6]: 4 µg/mL (≈ 6.56 µM) | MIC [7]: 0.031 µg/mL (≈ 0.0508 µM) | MIC [8]: 2 µg/mL (≈ 3.28 µM) | MIC [10]: 0.25 µg/mL (≈ 0.41 µM) | MIC [25]: 0.063 µg/mL (≈ 0.103 µM) | MIC [12]: 2 µg/mL (≈ 3.28 µM) | MIC [13]: 128 µg/mL (≈ 210 µM) | MIC [14]: ≤ 0.008 µg/mL | MIC [15]: > 128 µg/mL | MIC [16]: 2 µg/mL (≈ 3.28 µM) | MIC [17]: 0.063 µg/mL (≈ 0.103 µM) | MIC [18]: 1 µg/mL (≈ 1.64 µM) | MIC [19]: 0.031 µg/mL (≈ 0.0508 µM) | MIC [20]: ≤ 0.008 µg/mL | MIC [21]: 0.016 µg/mL (≈ 0.0262 µM) | MIC [22]: 4 µg/mL (≈ 6.56 µM) | MIC [23]: 0.031 µg/mL (≈ 0.0508 µM) | MIC [24]: 0.25 µg/mL (≈ 0.41 µM)
